Results: patent US10526327B2, “Histone demethylase inhibitors” (CELGENE QUANTICEL RESEARCH, INC., priority 2013, dated 2020)

Test system: KDM5A/B
Assay: In vitro cell-based assay: immuno-blot quantification of tri-methyl H3K4 in ZR-75-1 breast cancer cells
Conditions: 72 hours, tri-methyl H3K4 level relative to GAPDH, percent of DMSO, read-out: Cellular IC50
Procedure, shortened: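 ZR-75-1 breast cancer cells treated 72 h with 11-point compound dilutions (1250 μM to 10 nM). H3K4me3 quantified by infrared immunoblot densitometry, normalized to GAPDH and expressed as percent of DMSO control; relative IC50 from curve fit.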

| Structure (SMILES) | IC50 |
| --- | --- |
| CCS(=O)(=O)N1CCC[C@@H](n2cc(Oc3nc(O)c4ccncc4n3)cn2)C1 [Example 150, 2-({1-[(3R)-1-(ethanesulfonyl)piperidin-3-yl]-1H-pyrazol-4-yl}oxy)pyrido[3,4-d]pyrimidin-4-ol] | 0.1 to 1 µM |
| CC(=O)N1CCC[C@@H](n2cc(Oc3nc(O)c4ccncc4n3)cn2)C1 [Example 153, 1-[(3R)-3-[4-({4-hydroxypyrido[3,4-d]pyrimidin-2-yl}oxy)-1H-pyrazol-1-yl]piperidin-1-yl]ethan-1-one] | 1 to 10 µM |
| N#CCC(=O)N1CCC[C@@H](n2cc(Oc3nc(O)c4ccncc4n3)cn2)C1 [Example 154, 3-[(3R)-3-[4-({4-hydroxypyrido[3,4-d]pyrimidin-2-yl}oxy)-1H-pyrazol-1-yl]piperidin-1-yl]-3-oxopropanenitrile] | > 10 µM |
| O=C(CO)N1CC[C@H](n2cc(Oc3nc(O)c4ccncc4n3)cn2)C1 [Example 155, 2-hydroxy-1-[(3S)-3-[4-({4-hydroxypyrido[3,4-d]pyrimidin-2-yl}oxy)-1H-pyrazol-1-yl]pyrrolidin-1-yl]ethan-1-one] | 1 to 10 µM |
| O=C(C1CC1)N1CCC[C@@H](n2cc(Oc3nc(O)c4ccncc4n3)cn2)C1 [Example 156, 2-({1-[(3R)-1-cyclopropanecarbonylpiperidin-3-yl]-1H-pyrazol-4-yl}oxy)pyrido[3,4-d]pyrimidin-4-ol] | > 10 µM |
| O=C(c1ccccc1)N1CCC[C@@H](n2cc(Oc3nc(O)c4ccncc4n3)cn2)C1 [Example 157, 2-({1-[(3R)-1-benzoylpiperidin-3-yl]-1H-pyrazol-4-yl}oxy)pyrido[3,4-d]pyrimidin-4-ol] | 1 to 10 µM |
| Oc1nc(Oc2cnn([C@@H]3CCCN(Cc4ccccc4)C3)c2)nc2cnccc12 [Example 158, 2-({1-[(3R)-1-benzylpiperidin-3-yl]-1H-pyrazol-4-yl}oxy)pyrido[3,4-d]pyrimidin-4-ol] | 0.1 to 1 µM |
| Oc1nc(Oc2cnn([C@@H]3CCCN(c4ccc(F)cc4)C3)c2)nc2cnccc12 [Example 159, 2-({1-[(3R)-1-(4-fluorophenyl)piperidin-3-yl]-1H-pyrazol-4-yl}oxy)pyrido[3,4-d]pyrimidin-4-ol] | 1 to 10 µM |
| CCS(=O)(=O)N1CCC[C@H](n2cc(Oc3nc(O)c4ccncc4n3)cn2)C1 [Example 161, 2-({1-[(3S)-1-(ethanesulfonyl)piperidin-3-yl]-1H-pyrazol-4-yl}oxy)pyrido[3,4-d]pyrimidin-4-ol] | 0.1 to 1 µM |
| O=S(=O)(C1CC1)N1CCC[C@H](n2cc(Oc3nc(O)c4ccncc4n3)cn2)C1 [Example 162, 2-({1-[(3S)-1-(cyclopropanesulfonyl)piperidin-3-yl]-1H-pyrazol-4-yl}oxy)pyrido[3,4-d]pyrimidin-4-ol] | 0.1 to 1 µM |
| O=S(=O)(c1ccccc1)N1CCC[C@H](n2cc(Oc3nc(O)c4ccncc4n3)cn2)C1 [Example 163, 2-({1-[(3S)-1-(benzenesulfonyl)piperidin-3-yl]-1H-pyrazol-4-yl}oxy)pyrido[3,4-d]pyrimidin-4-ol] | 0.1 to 1 µM |
| CC(=O)N1CCC[C@H](n2cc(Oc3nc(O)c4ccncc4n3)cn2)C1 [Example 164, 1-[(3S)-3-[4-({4-hydroxypyrido[3,4-d]pyrimidin-2-yl}oxy)-1H-pyrazol-1-yl]piperidin-1-yl]ethan-1-one] | 1 to 10 µM |
| O=C(C1CC1)N1CCC[C@H](n2cc(Oc3nc(O)c4ccncc4n3)cn2)C1 [Example 165, 2-({1-[(3S)-1-cyclopropanecarbonylpiperidin-3-yl]-1H-pyrazol-4-yl}oxy)pyrido[3,4-d]pyrimidin-4-ol] | 1 to 10 µM |
| N#CCC(=O)N1CCC[C@H](n2cc(Oc3nc(O)c4ccncc4n3)cn2)C1 [Example 166, 3-[(3S)-3-[4-({4-hydroxypyrido[3,4-d]pyrimidin-2-yl}oxy)-1H-pyrazol-1-yl]piperidin-1-yl]-3-oxopropanenitrile] | > 10 µM |
| O=C(c1ccccc1)N1CCC[C@H](n2cc(Oc3nc(O)c4ccncc4n3)cn2)C1 [Example 167, 2-({1-[(3S)-1-benzoylpiperidin-3-yl]-1H-pyrazol-4-yl}oxy)pyrido[3,4-d]pyrimidin-4-ol] | 1 to 10 µM |
| Oc1nc(Oc2cnn([C@H]3CCCN(Cc4ccccc4)C3)c2)nc2cnccc12 [Example 168, 2-({1-[(3S)-1-benzylpiperidin-3-yl]-1H-pyrazol-4-yl}oxy)pyrido[3,4-d]pyrimidin-4-ol] | 1 to 10 µM |
